Consider two compounds from paper PMC8602723, “Comparative assessment of antimicrobial, antiradical and cytotoxic activities of cannabidiol and its propyl analogue cannabidivarin” (Scientific Reports, 2021).

Read-outs that look alike come from different tables or passages of the source.

One assay concerns TelCOFS02MA cells. Kind of assay: BrdU-ELISA (DNA synthesis inhibition). It is filed as cell-based, human. To be noted: for IC50: Homo sapiens, read-out: IC50 BrdU-ELISA. How it is done:
(§1) BrdU-ELISA was performed according to the protocol described by Lehmann and collaborators, and the results were used to evaluate the inhibition of DNA synthesis. A total of 1 × 10^4 cells/well were seeded in 100 µL of fresh medium into 96-well plates in triplicate at 37 °C in a humidified atmosphere of 95% air plus 5% CO2 for 24 h. Then, the medium was removed and replaced with 200 µL of medium with the same concentrations of CBD and CBDV that had been used in the previous test. In all experiments, blanks (wells with medium and without cells), negative controls (with only medium) and solvent controls (2.5% methanol) were included. The plates were incubated at 37 °C for 72 h. Then, 20 µL of 100 µM BrdU labelling solution was added to each well and incubated for 2 h at 37 °C. After removing the labelling solution, 200 µl of DNA fixing/denaturing solution was added to each well and incubated for 30 min at room temperature. After its discharge, 100 µL of the anti-BrdU-POD antibody solution [0.075 U/mL] was added to each well and incubated for 90 min at room temperature. After several washing steps with 1X PBS (200–300 µL/well), 100 µl of tetramethylbenzidine (TMB) was added to each well and incubated for 20–30 min (sufficient time for the colour change). The incorporation of BrdU into DNA was quantified spectrophotometrically at 370 nm. […] The mean absorbance of the control cells represented 100% cell proliferation, and the mean absorbance of the treated cells was related to the control values to determine cell sensitivity. Inhibition (%) of DNA synthesis/cell viability was determined as follows:2 IC%=1-OD370sample/OD370negativecontrol·100
(§2) IC50 values (representing the median concentration at which DNA synthesis and cell viability were reduced by 50%) were calculated.
(§3) All results from five independent experiments are expressed as the IC50 or EC50 as determined by analysis with Prism 5 software (GraphPad Inc., San Diego, CA, USA) and nonlinear regression (log agonist vs. normalized response-variable slope) with a 95% confidence range. Lowest observed adverse effect concentrations (LOAECs) were calculated by one-way ANOVA and Dunnett’s comparison test. Differences compared to the controls were considered significant as follows: *p < 0.05, **p < 0.001 and ***p < 0.0001.
On the technique in general: An ELISA detects its analyte on a solid surface through an enzyme-linked reagent.

In assay [1] the test system is Caco-2 cells. The assay can be described thus: BrdU-ELISA (DNA synthesis inhibition). It is filed as cell-based, human. Conditions: for IC50: Homo sapiens, read-out: IC50 BrdU-ELISA. The protocol:
as §1, §2, §3

Assay [2] has as its system Hep G2 cells. Kind of assay: BrdU-ELISA (DNA synthesis inhibition). It is filed as cell-based, human. Conditions: for IC50: Homo sapiens, read-out: IC50 BrdU-ELISA. How it is done: as §1, §2, §3
The next assay relates to A549 cells. The assay can be described thus: LDH assay (plasma membrane damage). Conditions: Homo sapiens, read-out: IC50 LDH assay. It is filed as cell-based. The protocol:
(§4) LDH assay is a high-throughput method based on the release of the LDH cytoplasmic enzyme from the cytosol into the extracellular space when the plasma membrane is damaged[29],[30]. Plasma membrane damage related to the amount of lysed cells was monitored by LDH assay, and the results were used for indirectly detecting the necrosis correlated to the leakage of the cytosolic enzyme due the loss of membrane permeability control[29],[30]. This assay was performed with the protocol described by Lehmann and colleagues.
(§5) Briefly, 1 × 10^4 A549 and Caco-2 cells and 2 × 10^4 HepG2, MDA-MB-231 and TelCOFS02MA cells were seeded in 100 µL of 1% FBS-fresh medium in each well of 96-well plates and incubated for 24 h at 37 °C with 95% humidity and 5% CO2. Then, the medium was removed and replaced with 100 µL of medium with different concentrations of CBD and CBDV, which were chosen on the basis of range-finding tests (as previously indicated). The plates were incubated at 37 °C for 72 h. In all experiments, the background control (wells with medium and without cells to obtain information about the LDH activity in the assay medium), low control (wells containing cells exposed only to the medium to determine spontaneous LDH release), high control (wells containing cells exposed to 2% Triton-X100 for 10 min before performing the assay to determine maximum LDH release), and solvent controls (2.5% methanol) were included. One hundred microlitres of supernatant was removed carefully from each well and transferred into corresponding wells in optically clear 96-well flat bottom microplates. One hundred microlitres of freshly prepared reaction mixture (Diaphorase (Catalyst)/NAD^+ /INT/sodium lactate) was added to each well and incubated for 30 min at 20 °C in darkness. Thus, NAD^+ was reduced to NADH/H^+ by the LDH-catalysed conversion of lactate to pyruvate. Then, the catalyst transferred H/H^+ from NADH/H^+ to the tetrazolium salt INT, which was reduced to formazan. To arrest the reaction, 50 µL/well of 1 N HCl was added. The spectrophotometric absorbance was determined at 492 nm. The absorbance of the background control wells was subtracted from all other values.
(§6) The results are reported as percentages of cytotoxicity, which is linked to the percentage of LDH released from damaged plasma membranes, calculated as follows:3 IC%=OD492sample-OD492lowcontrol/OD492highcontrol-OD492lowcontrol·100
(§7) IC50 values (concentrations of the sample to obtain 50% cytotoxicity) were calculated.
as §3

In a further assay the test system is MDA-MB-231 cells. The assay can be described thus: LDH assay (plasma membrane damage). It is filed as cell-based. Conditions: Homo sapiens, read-out: IC50 LDH assay. How it is done:
as §4, §5, §6, §7, §3

Assay [3] deals with Caco-2 cells. The assay can be described thus: LDH assay (plasma membrane damage). It is filed as cell-based. To be noted: Homo sapiens, read-out: IC50 LDH assay. How it is done: as §4, §5, §6, §7, §3
The subject of assay [4] is Hep G2 cells. Kind of assay: LDH assay (plasma membrane damage). It is filed as cell-based. To be noted: Homo sapiens, read-out: IC50 LDH assay. The protocol: as §4, §5, §6, §7, §3
[5] abbreviates: Caco-2, 72 h exposure, 95% confidence interval in brackets.
The mark [6] stands for this setting: HepG2, Hep G2, 72 h exposure, 95% confidence interval in brackets.

Take `C=C(C)[C@@H]1CCC(C)=C[C@H]1c1c(O)cc(CCCCC)cc1O` [CBD, Cannabidiol]: the IC50 – broadly, the point on the concentration scale where inhibition reaches its midpoint – came to 49.1 µM in the assay on TelCOFS02MA cells (TelCOFS02MA, 72 h exposure, 95% confidence interval in brackets); 33.3 µM in the assay with Caco-2 cells [1] (setting [5]); 39.2 µM with Hep G2 cells [2] (setting [6]); 24 µM with A549 cells (A549, 72 h exposure, 95% confidence interval in brackets); 22.1 µM in the assay on MDA-MB-231 cells (MDA-MB-231, 72 h exposure, 95% confidence interval in brackets); 22.8 µM in the assay with Caco-2 cells [3] (setting [5]). The concentration for half-maximal inhibition (IC50) in the assay with Hep G2 cells [4] (setting [6]) turned out to be 18.1 µM.

Consider `C=C(C)[C@@H]1CCC(C)=C[C@H]1c1c(O)cc(CCC)cc1O` [CBDV, cannabidivarin], for which the IC50 in the assay on TelCOFS02MA cells (72 h) came out at 69.1 µM; in the assay on Caco-2 cells [1] (Caco-2, 72 h), 40.4 µM; in the assay with Hep G2 cells [2] (HepG2, 72 h), 46.7 µM; with A549 cells (A549, 72 h), 26.3 µM; with MDA-MB-231 cells (MDA-MB-231, 72 h) it was 33.8 µM; with Caco-2 cells [3] (Caco-2, 72 h), 29.1 µM. Besides, the half-maximal inhibitory concentration (IC50) in the assay on Hep G2 cells [4] (HepG2, 72 h) turned out to be 21.2 µM. Further, the “LOAEC BrdU-ELISA” value came out at 44 µM in the assay on TelCOFS02MA cells (TelCOFS02MA, 72 h); 22 µM with Caco-2 cells [1] (Caco-2, 72 h); 22 µM with Hep G2 cells [2] (Hep G2, 72 h).
